Source: article PMC5485725, “QueF-Like, a Non-Homologous Archaeosine Synthase from the Crenarchaeota” (Biomolecules, 2017)

Biological target: T1, QueF-like (QueF-L) from Pyrobaculum calidifontis (Pyrobaculum calidifontis, UniProt A3MSP1)
T1 construct: codon-optimized synthetic gene in FactorXa/LIC vector (pLBI14), expressed in E. coli BL21(DE3); N-terminal His6 tag cut by Factor Xa; starts at Met1 (primer encodes MLKVSK..., ends ...PPVYI); decamer
T1 sequence (A3MSP1 1-109): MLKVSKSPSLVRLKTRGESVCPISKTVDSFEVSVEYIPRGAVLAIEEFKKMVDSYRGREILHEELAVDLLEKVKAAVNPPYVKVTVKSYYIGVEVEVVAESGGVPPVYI
Assay: UV-Vis titration of thioimide absorbance at […] nm
Assay type: binding
Settings: read-out: apparent KD

## N#Cc1c[nH]c2nc(N)[nH]c(=O)c12 [preQ0]
  Kd: 8 µM
